From ChEMBL document CHEMBL2375309, “19-[(1'S,4'R)-4'-Hydroxy-1'-methoxy-2'-oxopentyl]geldanamycin, a natural geldanamycin analogue from Streptomyces hygroscopicus 17997” (J Nat Prod, 2013)
≈ marks a conversion by molar mass, not a printed value.

Experiments:
HepG2 = assay: Cytotoxicity against human HepG2 cells by MTT assay; format: functional, cell-based
[1] = Aqueous solubility of the compound; format: physicochemical

Q: For COC1=C2C[C@@H](C)C[C@H](OC)[C@H](O)[C@@H](C)/C=C(\C)[C@H](OC(N)=O)[C@@H](OC)CC/C=C(\C)C(=O)NC(=C([C@H](OC)C(=O)C[C@@H](C)O)C1=O)C2=O, which IC50 (HepG2) is on record?
A: Its IC50 is 22.4 µM.

Q: And the solubility [1]?
A: Its solubility is 7700 µg/mL (≈ 11.1 mM).

Q: With COC1=C2C[C@@H](C)C[C@H](OC)[C@H](O)[C@@H](C)/C=C(\C)[C@H](OC(N)=O)[C@@H](OC)/C=C\C=C(/C)C(=O)NC(=CC1=O)C2=O [GELDANAMYCIN] as the compound, how does the IC50 (HepG2) read?
A: The IC50 was 0.3 µM.

Q: What about the solubility [1] of the same compound?
A: The solubility was 2 µg/mL (≈ 0.00357 mM).

Q: Which IC50 (HepG2) does the source give for COC1=C2C[C@@H](C)C[C@H](OC)[C@H](O)[C@@H](C)/C=C(\C)[C@H](OC(N)=O)[C@@H](OC)/C=C\C=C(/C)C(=O)NC(=C([C@H](OC)C(=O)C[C@@H](C)O)C1=O)C2=O here?
A: The IC50 was 14.6 µM.

Q: And the solubility [1]?
A: The solubility was 15400 µg/mL (≈ 22.3 mM).
